Data taken from US4442044A, “Process for preparing monoesters and diesters of N-alkyl substituted amino methyl phosphonic acid” (priority 1983, dated 1984).

Key:
Test in all cases: pre-emergent herbicidal activity, soil incorporation
Assay type in all cases: in vivo
Conditions in all cases: Table III, 2 WAT, 11.2 kg/h
Barnyardgrass = tested on: Barnyardgrass
Summary of the method: (§1)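 Seeds or propagules pressed onto compacted top soil in pans; covering soil admixed with formulation of known active-ingredient amount, then filled and leveled. Pans sub-irrigated on wet sand bench ~two weeks under ordinary sunlight. Emerged plants counted versus untreated control; activity index from average percent control per species.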

Canada Thistle = tested on: Canada Thistle
Summary of the method: as §1

Cocklebur = tested on: Cocklebur
Summary of the method: as §1

Downy Brome = tested on: Downy Brome
Summary of the method: as §1

Johnsongrass = tested on: Johnsongrass
Summary of the method: as §1

Lambsquarters = tested on: Lambsquarters
Summary of the method: as §1

Morningglory = tested on: Morningglory
Summary of the method: as §1

Quackgrass = tested on: Quackgrass
Summary of the method: as §1

Smartweed = tested on: Smartweed
Summary of the method: as §1

Velvetleaf = tested on: Velvetleaf
Summary of the method: as §1

Yellow Nutsedge = tested on: Yellow Nutsedge
Summary of the method: as §1

Row | SMILES | pre-emergent herbicidal activity index (Barnyardgrass) | pre-emergent herbicidal activity index (Canada Thistle) | pre-emergent herbicidal activity index (Cocklebur) | pre-emergent herbicidal activity index (Downy Brome) | pre-emergent herbicidal activity index (Johnsongrass) | pre-emergent herbicidal activity index (Lambsquarters) | pre-emergent herbicidal activity index (Morningglory) | pre-emergent herbicidal activity index (Quackgrass) | pre-emergent herbicidal activity index (Smartweed) | pre-emergent herbicidal activity index (Velvetleaf) | pre-emergent herbicidal activity index (Yellow Nutsedge)
1 | CC(C#N)OP(=O)(O)CNCC(=O)OCCCl (stereo not shown) [Example 7, glycine, N-[[(1-cyanoethoxy)hydroxyphosphinyl]methyl], 2-chloroethyl ester] | 0 (1-24% control) | 1 (25-49% control) | 0 (1-24% control) | 0 (1-24% control) | 1 (25-49% control) | 0 (1-24% control) | 0 (1-24% control) | 0 (1-24% control) | 0 (1-24% control) | 0 (1-24% control) | 0 (1-24% control)
2 | CC(C#N)OP(=O)(O)CNCC(=O)OCc1ccccc1 (stereo not shown) [Example 10, glycine, N-[[(1-cyanoethoxy)hydroxyphosphinyl]methyl]-,phenylmethyl ester] | 0 (1-24% control) | 3 (75-100% control) | 0 (1-24% control) | 0 (1-24% control) | 2 (50-74% control) | 0 (1-24% control) | 0 (1-24% control) | 0 (1-24% control) | 0 (1-24% control) | 0 (1-24% control) | 0 (1-24% control)
